# Reference: ChEMBL document CHEMBL1201862, “PubChem BioAssay data set” (2004)
# Activity calls are given as the source filed them.
# Assays:
# Assay type in all cases: functional
# [1] = target: DNA dC->dU-editing enzyme APOBEC-3A (Homo sapiens, UniProt P31941); assay: SAR analysis of small molecule inhibitors of APOBEC3A DNA Deaminase via a fluorescence-based single-stranded DNA deaminase assay.; conditions: read-out: IC50_Mean
# [2] = target: DNA dC->dU-editing enzyme APOBEC-3G (Homo sapiens, UniProt Q9HC16); assay: inhibition of APOBEC3G ssDNA deamination – biochemical, fluorescence, single-stranded DNA substrate, SAR follow-up (AID 602136); conditions: read-out: IC50_Mean
# Sequence of DNA dC->dU-editing enzyme APOBEC-3G (Q9HC16 whole entry): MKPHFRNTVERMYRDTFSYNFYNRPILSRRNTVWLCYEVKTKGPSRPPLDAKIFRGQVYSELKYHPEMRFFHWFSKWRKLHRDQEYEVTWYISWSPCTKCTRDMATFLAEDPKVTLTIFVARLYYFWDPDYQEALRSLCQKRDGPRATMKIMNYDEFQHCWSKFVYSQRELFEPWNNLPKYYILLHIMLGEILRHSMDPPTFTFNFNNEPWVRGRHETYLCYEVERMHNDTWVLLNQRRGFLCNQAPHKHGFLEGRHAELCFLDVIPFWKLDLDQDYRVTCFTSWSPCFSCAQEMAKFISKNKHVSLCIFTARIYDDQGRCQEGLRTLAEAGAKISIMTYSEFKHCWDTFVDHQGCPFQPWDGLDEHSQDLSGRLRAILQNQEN
# [3] = target: T1, Orexin/Hypocretin receptor type 1 (Homo sapiens, UniProt O43613); assay: Homogeneous Time Resolved Fluorescence (HTRF)-based cell-based high throughput dose response assay for antagonists of the orexin 1 receptor (OX1R; HCRTR1). [Related pubchem assays (depositor defined):AID434989, AID435008, AID463079, AID485270, AID492963, AID492964, AID492965, AID493232, AID504717, AID504718]
# T1 sequence (O43613 whole entry): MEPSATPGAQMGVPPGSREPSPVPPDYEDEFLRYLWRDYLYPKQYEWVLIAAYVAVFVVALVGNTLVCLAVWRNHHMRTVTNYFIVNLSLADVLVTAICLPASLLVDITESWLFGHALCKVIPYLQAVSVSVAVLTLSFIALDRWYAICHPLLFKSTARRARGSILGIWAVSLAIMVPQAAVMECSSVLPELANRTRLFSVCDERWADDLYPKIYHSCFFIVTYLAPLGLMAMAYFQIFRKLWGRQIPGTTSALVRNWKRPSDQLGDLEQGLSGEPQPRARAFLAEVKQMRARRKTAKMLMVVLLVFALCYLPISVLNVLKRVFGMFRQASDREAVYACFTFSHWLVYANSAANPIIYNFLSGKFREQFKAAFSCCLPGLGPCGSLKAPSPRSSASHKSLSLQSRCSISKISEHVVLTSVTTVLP
# [4] = (§1) Counterscreen for antagonists of the orexin 1 receptor (OX1R; HCRTR1): Fluorescence-based cell-based high throughput dose response assay to identify antagonists of the parental CHO cell line. [Related pubchem assays (depositor defined):AID434989, AID435008, AID463079, AID485270, AID492963, AID492964, AID492965, AID493232, AID504699, AID504701]
# [5] = target: T2, Orexin receptor type 2 (Homo sapiens, UniProt O43614); assay: Counterscreen assay for antagonists of the orexin 1 receptor (OX1R; HCRTR1): Homogeneous Time Resolved Fluorescence (HTRF)-based cell-based dose response assay for antagonists of the orexin 2 receptor (OX2R; HCRTR2), run by assay provider.
# T2 sequence (O43614 whole entry): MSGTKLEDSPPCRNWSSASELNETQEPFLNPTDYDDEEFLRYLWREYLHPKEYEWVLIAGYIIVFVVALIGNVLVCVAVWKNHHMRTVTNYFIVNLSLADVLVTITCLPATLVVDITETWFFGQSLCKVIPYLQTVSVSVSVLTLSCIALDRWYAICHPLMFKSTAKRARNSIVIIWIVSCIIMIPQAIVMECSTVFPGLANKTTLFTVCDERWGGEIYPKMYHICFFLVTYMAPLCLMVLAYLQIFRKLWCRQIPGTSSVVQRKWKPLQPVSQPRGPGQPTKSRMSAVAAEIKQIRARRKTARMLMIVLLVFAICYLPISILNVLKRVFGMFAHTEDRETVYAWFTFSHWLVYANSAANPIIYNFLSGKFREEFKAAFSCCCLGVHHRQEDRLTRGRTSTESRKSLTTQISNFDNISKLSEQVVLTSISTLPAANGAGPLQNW
# [6] = target: T2, Orexin receptor type 2; assay: Counterscreen assay for antagonists of the orexin 1 receptor (OX1R; HCRTR1): Fluorescence-based cell-based dose response assay for antagonists of the orexin 2 receptor (OX2R; HCRTR2), run by assay provider.
# [7] = target: T3, Coagulation factor XII (Homo sapiens, UniProt P00748);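 further: activated factor XIIa alpha cleaving a fluorogenic AMC peptide substrate; inhibitor potency from loss of enzyme activity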
# T3 sequence (P00748 whole entry): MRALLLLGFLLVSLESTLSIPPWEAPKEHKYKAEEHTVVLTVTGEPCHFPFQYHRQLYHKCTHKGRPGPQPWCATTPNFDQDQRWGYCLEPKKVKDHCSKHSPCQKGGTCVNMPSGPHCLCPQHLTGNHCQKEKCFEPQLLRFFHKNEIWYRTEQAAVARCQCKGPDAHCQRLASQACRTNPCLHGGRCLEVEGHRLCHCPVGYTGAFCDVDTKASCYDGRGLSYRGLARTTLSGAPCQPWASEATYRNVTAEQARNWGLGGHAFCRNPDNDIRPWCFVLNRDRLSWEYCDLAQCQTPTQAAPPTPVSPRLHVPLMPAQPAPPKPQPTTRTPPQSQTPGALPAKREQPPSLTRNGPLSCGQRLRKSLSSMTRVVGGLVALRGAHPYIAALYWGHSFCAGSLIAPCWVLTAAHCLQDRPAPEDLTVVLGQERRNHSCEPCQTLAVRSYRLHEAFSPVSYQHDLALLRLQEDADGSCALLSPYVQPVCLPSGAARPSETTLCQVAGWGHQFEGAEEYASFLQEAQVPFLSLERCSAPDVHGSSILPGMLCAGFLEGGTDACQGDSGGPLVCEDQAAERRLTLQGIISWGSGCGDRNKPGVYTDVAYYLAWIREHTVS
# [8] = test system: CHO-K1; assay: as §1, with “Homogeneous time resolved fluorescence (HTRF)-based” for “Fluorescence-based”, “cell-based” for “cell-based high throughput”, “CHO-K1” for “CHO”; conditions: Cricetulus griseus;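 further: potency for inhibition of ATP-stimulated IP1 production as antagonists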
# [9] = target: T1, Orexin/Hypocretin receptor type 1; assay: Fluorescence-based cell-based high throughput dose response assay for antagonists of the orexin 1 receptor (OX1R; HCRTR1). [Related pubchem assays (depositor defined):AID434989, AID435008, AID463079, AID485270, AID492963, AID492964, AID492965, AID493232, AID504717, AID504718]
# [10] = cells
# [11] = target: T4, Multidrug resistance protein CDR2 (Candida albicans (strain SC5314 / ATCC MYA-2876) (Yeast), UniProt P78595); assay: inhibition of Nile Red efflux via Candida CDR2 – S. cerevisiae AD1-8u, singleplex, Cherry Pick1 hits, dose response (AID 588604)
# T4 sequence (P78595 whole entry): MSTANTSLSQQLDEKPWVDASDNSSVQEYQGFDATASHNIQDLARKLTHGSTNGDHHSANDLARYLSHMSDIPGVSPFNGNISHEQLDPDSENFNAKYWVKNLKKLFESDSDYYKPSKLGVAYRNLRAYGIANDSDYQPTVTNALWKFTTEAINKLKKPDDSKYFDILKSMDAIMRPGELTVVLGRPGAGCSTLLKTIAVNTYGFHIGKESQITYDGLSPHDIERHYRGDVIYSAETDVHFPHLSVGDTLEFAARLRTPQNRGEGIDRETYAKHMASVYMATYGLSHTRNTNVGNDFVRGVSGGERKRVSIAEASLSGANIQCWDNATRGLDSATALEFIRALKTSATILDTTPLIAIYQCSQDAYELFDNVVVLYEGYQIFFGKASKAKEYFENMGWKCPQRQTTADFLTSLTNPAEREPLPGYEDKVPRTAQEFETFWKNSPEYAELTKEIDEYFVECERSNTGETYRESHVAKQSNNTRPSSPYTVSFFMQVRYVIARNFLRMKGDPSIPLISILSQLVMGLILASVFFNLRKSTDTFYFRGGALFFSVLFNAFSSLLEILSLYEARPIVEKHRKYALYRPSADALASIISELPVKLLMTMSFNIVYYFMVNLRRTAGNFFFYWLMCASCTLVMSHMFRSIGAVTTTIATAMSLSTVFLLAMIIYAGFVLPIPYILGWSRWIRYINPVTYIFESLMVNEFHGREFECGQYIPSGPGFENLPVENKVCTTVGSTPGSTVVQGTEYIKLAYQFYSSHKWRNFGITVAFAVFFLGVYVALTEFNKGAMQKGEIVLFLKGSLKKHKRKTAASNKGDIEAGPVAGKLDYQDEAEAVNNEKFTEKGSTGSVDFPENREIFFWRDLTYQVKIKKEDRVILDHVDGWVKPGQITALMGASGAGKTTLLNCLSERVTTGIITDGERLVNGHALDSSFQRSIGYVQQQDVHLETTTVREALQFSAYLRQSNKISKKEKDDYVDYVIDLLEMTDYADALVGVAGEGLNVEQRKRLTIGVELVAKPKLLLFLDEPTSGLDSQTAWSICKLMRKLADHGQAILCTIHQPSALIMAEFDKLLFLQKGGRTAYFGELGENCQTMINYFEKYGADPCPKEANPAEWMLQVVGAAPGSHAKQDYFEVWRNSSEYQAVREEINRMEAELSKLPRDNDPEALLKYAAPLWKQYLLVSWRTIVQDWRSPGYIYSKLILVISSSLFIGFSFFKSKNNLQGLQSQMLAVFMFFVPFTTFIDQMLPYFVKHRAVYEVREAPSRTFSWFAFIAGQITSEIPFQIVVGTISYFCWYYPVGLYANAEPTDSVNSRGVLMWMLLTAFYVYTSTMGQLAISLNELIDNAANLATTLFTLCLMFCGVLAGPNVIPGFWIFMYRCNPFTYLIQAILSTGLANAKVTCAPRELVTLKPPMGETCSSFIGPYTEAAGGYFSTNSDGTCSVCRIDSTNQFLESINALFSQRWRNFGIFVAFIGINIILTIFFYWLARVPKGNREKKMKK
# [12] = target: Benomyl/methotrexate resistance protein (Candida albicans, UniProt P28873); assay: Candida albicans Mdr1 pump inhibition curves – singleplex, Cherry Pick1 hits, dose response (AID 588608)
# Sequence of Benomyl/methotrexate resistance protein (P28873 whole entry): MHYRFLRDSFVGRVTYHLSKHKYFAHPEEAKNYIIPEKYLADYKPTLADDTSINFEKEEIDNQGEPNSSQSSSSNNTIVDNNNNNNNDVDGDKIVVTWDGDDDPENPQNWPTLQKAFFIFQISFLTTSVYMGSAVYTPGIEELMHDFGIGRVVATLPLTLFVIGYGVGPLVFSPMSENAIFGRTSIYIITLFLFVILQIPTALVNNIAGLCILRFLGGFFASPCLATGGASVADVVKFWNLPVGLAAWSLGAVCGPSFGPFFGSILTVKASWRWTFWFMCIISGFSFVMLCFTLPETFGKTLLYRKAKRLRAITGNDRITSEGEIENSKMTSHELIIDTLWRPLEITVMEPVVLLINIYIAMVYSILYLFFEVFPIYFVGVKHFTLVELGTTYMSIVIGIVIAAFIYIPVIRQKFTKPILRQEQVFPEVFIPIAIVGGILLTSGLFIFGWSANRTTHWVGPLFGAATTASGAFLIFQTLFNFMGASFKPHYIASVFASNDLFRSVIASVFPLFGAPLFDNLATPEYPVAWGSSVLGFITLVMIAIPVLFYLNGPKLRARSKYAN
# Sequence of DNA dC->dU-editing enzyme APOBEC-3A (P31941 whole entry): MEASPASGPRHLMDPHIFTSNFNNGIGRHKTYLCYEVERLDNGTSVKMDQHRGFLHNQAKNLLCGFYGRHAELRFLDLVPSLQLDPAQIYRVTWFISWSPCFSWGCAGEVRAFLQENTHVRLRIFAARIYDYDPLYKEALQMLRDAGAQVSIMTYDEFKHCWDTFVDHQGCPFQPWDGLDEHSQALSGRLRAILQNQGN
smiles,measurement,setting,value
Cc1ccc(-c2nnc(SC(C)C(=O)NCc3ccco3)n2C)cc1 (centres undefined),IC50,[1],> 99 µM (inactive)
same,IC50,[2],> 99 µM (inactive)
Cc1ccc(C(=O)N/C(=C/c2ccc(-c3cccc([N+](=O)[O-])c3)o2)C(=O)NC(C)(C)C)cc1,IC50,[3],2.09 µM (active)
same,IC50,[4],> 49.8 µM (inactive)
same,IC50,[5],2.42 µM (active)
same,IC50,[6],27.9 µM (inactive)
same,IC50,[7],> 50 µM (inactive)
same,IC50,[8],> 66.3 µM (inactive)
same,IC50,[9],> 5.53 µM (active)
CCC(C)n1c(SCC(=O)NCc2ccco2)nnc1-c1cccc(S(=O)(=O)N2CCOCC2)c1 (centres undefined),IC50,[1],> 99 µM (inactive)
same,IC50,[2],> 99 µM (inactive)
COc1ccc(CCOC(=O)c2ccc(N)c([N+](=O)[O-])c2)cc1,IC50,[10],21 µM (active)
same,EC50,[11],4.29 µM (active)
same,EC50,[12],0.011 µM (active)
